We go through nine molecules from patent US7754864B2, “Tyrosinase activity controlling agent, process for producing the same and external preparation containing the same” (National Institute of Advanced Industrial Science and …, priority 2002, dated 2010).

Test [1] concerns tyrosinase (derived from mushroom, SIGMA). The test can be described thus: Tyrosinase inhibitory activity using proline, phenol as substrate. Type of test: biochemical. The settings on record: for tyrosinase inhibitory activity: phenol as substrate, absorbance 525 nm. As for the experimental part: The tyrosinase inhibitory activity of an undecylenic acid sugar ester was determined using phenol as a substrate, by a modification of the method using pyrocatechol.

Test [2] has the same test system. The test can be described thus: Tyrosinase inhibitory activity using proline, pyrocatechol as substrate. Type of test: biochemical. The settings on record: pyrocatechol (catechol) as substrate, absorbance 525 nm.
Test [3] has the same test system. The test can be described thus: Tyrosinase activation promoting effect, phenol as substrate in the presence of proline. It is filed as biochemical. The settings on record: FIG. 10. The protocol:
Ascorbic acid and ascorbic acid derivatives were used as test substances for measuring tyrosinase activation promoting effects, using phenol as a substrate in the presence of proline.
Phenol is hydroxylated by tyrosinase, and at that time requires a hydrogen donor. The produced pyrocatechol is oxidized by tyrosinase to form an orthoquinone. The orthoquinone formed is quantitated in the presence of proline, to determine the tyrosinase activity.
Specifically, the measurement was carried out as follows. Forty microliters of 0.749 M L-proline dissolved in 0.1 M phosphate buffer at pH 7.5, 40 μl of 0.037 M phenol, and 1.41 ml of one of test substance solutions at various concentrations were stirred in a cuvette for absorbance measurement. A solution (10 μl) of 350 μg/ml of tyrosinase (derived from mushroom, SIGMA) was added, and the absorbance change was measured with stirring for 15 minutes at 525 nm, to determine the tyrosinase activity. […]

Test [4] deals with Mouse melanoma B16 cells. The test can be described thus: Evaluation of melanogenesis inhibitory effect using mouse melanoma cells. The settings on record: melanin production per cell, FIG. 4. Type of test: cell-based. The protocol:
Mouse melanoma B16 cells (3.6×10^5) were added to a 75 cm^2 culture flask containing 15 ml of D-MEM culture medium supplemented with 10% FCS, and incubated overnight at 37° C. under 5% carbon dioxide gas to adhere the cells. The culture medium was changed to 15 ml of 10% FCS-supplemented D-MEM culture medium containing one of 0.1% DMSO solutions of arbutin or 6-O-(10-undecylenoyl) arbutin obtained in Example 1-1 at various concentrations. The incubation was continued for two more days under the same conditions. The culture medium was again changed to 15 ml of the 0.1% DMSO solution-containing culture medium, and incubation was continued for two more days under the same conditions. After incubation, the cells were recovered, and the wet weight of the cells was measured. After the wet weight measurement, pellets of the cells were suspended in MilliQ water to a total volume of 700 μl. […] The absorbance (405 nm) was then measured. […] The melanin production per cell was indicated as absorbance at 405 nm/cell wet weight (μg). The melanogenesis inhibitory effects of arbutin undecylenate or arbutin at each concentration was determined, with the melanin production per cell without addition of arbutin or arbutin undecylenate being taken as 100%.

Regarding `OC[C@H]1O[C@@H](Oc2ccc(O)cc2)[C@H](O)[C@@H](O)[C@@H]1O` [Arbutin], the tyrosinase inhibitory activity entry in test [1] and in test [2] was “inhibit tyrosinase activity” throughout. The “tyrosinase inhibitory activity, phenol substrate compared with catechol substrate” value in test [1] (phenol vs catechol substrate, FIG. 6) was “higher inhibitory activity against a phenol substrate than against a catechol substrate”.
For `CCCCCCCCCCCCCCCC(=O)OCC(O)C1OC(=O)C(O)=C1O` (stereo not shown) [Ascorbic acid palmitic ester, ascorbic acid-6-palmitate], the “concentrations exhibiting tyrosinase activity promoting effects” value in test [3] was ≤ 10^−4 M.
Regarding `C=CCCCCCCCCC(=O)O` [Undecylenic acid], the tyrosinase inhibitory activity entry in test [2] is “inhibit tyrosinase activity”.
In the case of `C=CCCCCCCCCC(=O)OC[C@H]1O[C@@H](Oc2ccc(O)cc2)[C@H](O)[C@@H](O)[C@@H]1O` [arbutin undecylenate, 6-O-(10-undecylenoyl)arbutin], in test [4], the “melanogenesis inhibitory effect relative to arbutin” value was “about 100 times”.
As to `O=C1O[C@H]([C@@H](O)CO)C(O)=C1O` [ascorbic acid, L-ascorbic acid], the “concentrations exhibiting tyrosinase activity promoting effects” value in test [3] is on record as ≤ 10^−4 M.
As to Sucrose undecylenic acid ester, the tyrosinase inhibitory activity result in test [1] and in test [2] was “inhibit tyrosinase activity” each time.
As to Trehalose diundecylenic acid ester, in test [2], the tyrosinase inhibitory activity result is “not inhibit tyrosinase activity”.
With Trehalose oleate, the tyrosinase inhibitory activity result in test [1] is “not inhibit tyrosinase activity”.
Turning to trehalose undecylenic acid ester, the tyrosinase inhibitory activity entry is on record as “tyrosinase was inhibited” in test [1] and “inhibition of tyrosinase” in test [2].
